From patent US12448383B2, “Compounds and methods for treatment of viral infections” (priority 2022, dated 2025)
Like-named read-outs stand apart in the source and are kept apart here.

Columns and labels:
[1] = system: Caco-2 cells (clone C2BBe1); assay: CACO-2 permeability; type: in vitro ADME; parameters: unit not given here; details: for DM Caco2 A to B: apical to basolateral, donor pH 6.5, receiver pH 7.4; for DM Caco2 B to A: basolateral to apical
Summary of the method: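 Caco-2 monolayers grown 21 days on collagen-coated transwells and checked for integrity by TEER. Donor buffer was HBSS/HEPES/glucose pH 6.5 with 200 μM BNPP; receiver was pH 7.4 with BSA. Compounds were dosed apically or basolaterally for A-to-B and B-to-A transport, with receiver sampling at 1 and 2 h, LC-MS/MS analysis and percent recovery.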

[2] = Stability in pH2 buffered solution; type: physicochemical; details: for pH 2 Stability 24 h % AN: pH2 phosphate buffer, 40° C., Table N2
Summary of the method: (§1)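 Compounds diluted from 1 mg/mL acetonitrile stock to 50 μg/mL in 50 mM phosphate buffer with 150 mM NaCl at pH2 or pH7, held at 40° C. for 24 hrs. UPLC sampling at 0, 3, 6, 9, 12 hrs, plus 24 hrs from oven-stored duplicate; reported as % area normalized of compound peak.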

[3] = Plasma stability; type: in vitro ADME; parameters: unit not given here; details: 37° C., 2 μM substrate
Summary of the method: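 Reaction mixture was sampled at 0.05, 0.5, 1, 2, 3 and 4 hr into quench solution containing internal standard, then centrifuged and diluted with water. Remaining analyte was measured by LC-MS on a Q-Exactive using a formic acid/acetonitrile gradient, with 5 ppm mass tolerance.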

[4] = Thermodynamic solubility in pH7 buffered solution; details: 50 mM phosphate buffer pH7, 150 mM NaCl, ambient temperature, 24 hours
Experimental: Solubility was determined at ambient temperature in a 50 mM phosphate buffered pH7 solution with 150 mM NaCl (to achieve isotonicity). Solids were added to the buffered solution in 1.5-mL Eppendorf tubes, vortexed for 1 minute, then agitated for 24 hours in an Eppendorf ThermoMixer C. […] Supernatants were diluted to a volume of 1 mL with 30:70 v/v acetonitrile:water. All diluted supernatants were analyzed by UPLC using a Waters Acquity UPLC with a PDA UV detector.

[5] = system: Respiratory syncytial virus recombinant with luciferase (RSV-Luc5) in HEp-2 cells; assay: microbe, parasite or virus in culture; type: cell-based; details: human respiratory syncytial virus
[6] = system: SARS Coronavirus 2 recombinant with NanoLuc (SARS-CoV2-NLuc) in A549-hACE2 cells; assay: organism not typed; type: cell-based
[7] = GI S9 stability; type: in vitro ADME; details: human, s9, pH 7.4
Experimental: Example G: GI S9 Stability
Duplicate aliquots of test compound or positive control substrate (GS-7340) were added to S9 stock diluted with 100 mM phosphate buffered saline, pH 7.4, to obtain a protein concentration of 1.0 mg/mL. The S9 metabolic reactions were initiated by the addition of the substrates to the S9 reaction mixture to a final concentration of 2 μM. At 0, 10, 20, 30, 60 and 120 min, […] aliquots of the reaction mixture were transferred to plates containing […] of IS/Q solution. After quenching, the plates were centrifuged at 3000 g for 30 minutes, and 150 μL aliquots of each supernatant were diluted with 150 μL water. Aliquots ([…]) of the diluted supernatant were analyzed on a Thermo Q-Exactive mass spectrometer as described below. GI S9 Stability—No phenylmethylsulfonyl fluoride (PMSF): Similar to the procedure described above, test compounds were incubated at 2 μM with 1 mg/mL PMSF-free Intestinal S9 fractions. Samples are removed at 6 time points over the course of a 120 min experiment and the parent compound disappreance and reference compound A formation is determined by mass spectrometry.
Example K: Liquid Chromatography/Mass Spectroscopy Methods for S9 and Plasma Stability
Quantification of test compounds, Reference Compound A (S9 stability assay nucleoside metabolite), and controls was performed by analyte/internal standard peak area ratio (PAR) values measured on a Thermo Q-Exactive mass spectrometer coupled to a Dionex UltiMate 3000 HPLC with a Leap Technologies HTC PAL autosampler. The column used for analysis of test compounds and Reference Compound A was a Waters Acquity BEH C18 ([…] particle size, 2.1′50 mm). The column used for control (GS-7340) was a Thermo Hypersil GOLD ([…] particle size, 2.1′50 mm). Mobile phase A consisted of 0.1% (v/v) formic acid in water. Mobile phase B consisted of 0.1% (v/v) formic acid in acetonitrile. Elution of analytes was achieved by a series of linear gradients of acetonitrile in water containing 0.1°(v/v) formic acid. The mass spectrometer was calibrated on a weekly basis and mass tolerance of 5 ppm was used.

[8] = Stability in pH7 buffered solution; type: physicochemical; details: pH7 phosphate buffer, 40° C., Table N2
Summary of the method: as §1

[9] = system: Respiratory syncytial virus recombinant with luciferase (RSV-Luc5) in Normal Human Bronchial Epithelial (NHBE) cells; assay: microbe, parasite or virus in culture; type: cell-based
[10] = CC50 MT4 cytotoxicity (Cell-Titer Glo); type: cell-based; details: human
Summary of the method: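 Uninfected MT-4 and HEp-2 cells cultured 4-5 days at 37° C with 3-fold serially diluted compound (15 nM to 100,000 nM). Viability read by Cell-Titer Glo luminescence; untreated and 2 μM puromycin wells set 100% and 0%. CC50 from non-linear regression as concentration reducing viability by 50%.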

[11] = GI S9 stability - no PMSF; type: in vitro ADME; details: pH 7.4
Summary of the method: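 Compounds were incubated at 2 μM with PMSF-free intestinal S9 (1 mg/mL protein) in 100 mM PBS, pH 7.4, sampling at 6 time points over 120 min. Parent disappearance and formation of the nucleoside metabolite Reference Compound A were quantified by LC-MS (Q-Exactive) using analyte/internal standard peak area ratios.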

[12] = DM logD
[13] = male, Sprague-Dawley, rat, in vivo, po
Experimental: Example E: Rat pharmacokinetics assay
Blood samples were collected into pre-chilled collection tubes containing K2EDTA and processed to plasma at 10 time points over a span of pre-dose to 24 h post-administration. Plasma samples were subject to protein precipitation with a 12.5-fold volume of methanol, vortexed and centrifuged. Supernatants were transferred and evaporated to dryness under nitrogen and reconstituted with 5% acetonitrile in water.

[14] = HEp-2, 72 h, read-out: RSV Hep2 EC50
[15] = A549; read-out: EC50 SARS CoV2 NanoLuc A549 384
[16] = read-out: EC50 RSVFluc-NHBE 384 V2
[17] = uninfected MT-4 cells, Table D3, read-out: CC50 MT4 384

Compound | DM Caco2 A to B [1] | DM Caco2 B to A [1] | pH 2 Stability 24 h % AN ([2]; 24 h) [% AN] | STA Human Plasma 37 [3] | Sol pH 7 [4] | EC50 [5, 14] [nM] | EC50 ([6]; 48 h; read-out: SARS-CoV2 EC50) [nM] | half-life at 2 µM [7] [min] | pH 7 Stability 24 h % AN [8] [% AN] | EC50 ([9]; 72 h, read-out: RSV NHBE EC50) [nM] | CC50 [10] [nM] | logD [12] | EC50 [6, 15] [nM] | EC50 [9, 16] [nM] | CC50 [10, 17] [nM] | other results
N#C[C@@]1(c2ccc3c(N)ncnn23)O[C@H](COC(=O)OCc2ccccc2)[C@@H](O)[C@H]1O [Compound 13, ((2R,3S,4R,5R)-5-(4-aminopyrrolo[2,1-f][1,2,4]triazin-7-yl)-5-cyano-3,4-dihydroxytetrahydrofuran-2-yl)methyl benzyl carbonate] | 0.59 | 8.8 | 98 | 3 | 0.12 | 444 | 1250 | 35.3 | 97 | 1530 | 39100 | – | – | – | – | –
N#C[C@@]1(c2ccc3c(N)ncnn23)O[C@H](COC(=O)OC2CCCCCCC2)[C@@H](O)[C@H]1O [Compound 14, ((2R,3S,4R,5R)-5-(4-aminopyrrolo[2,1-f][1,2,4]triazin-7-yl)-5-cyano-3,4-dihydroxytetrahydrofuran-2-yl)methyl cyclooctyl carbonate] | 1.84 | 21.7 | 97 | 262.42 | – | 350 | – | 56.3 | 97 | 380 | > 50000 | – | – | – | – | EC50 ([6]; 48 h, read-out: SARS-CoV2 EC50): 1560 nM; half-life at 2 µM ([11]; human intestinal S9, PMSF-free, read-out: GIS9-HUMAN-NoPMSF T1/2): 1.07 min
CCC(CC)COC(=O)OC[C@H]1O[C@@](C#N)(c2ccc3c(N)ncnn23)[C@H](O)[C@@H]1O [Compound 15, ((2R,3S,4R,5R)-5-(4-aminopyrrolo[2,1-f][1,2,4]triazin-7-yl)-5-cyano-3,4-dihydroxytetrahydrofuran-2-yl)methyl (2-ethylbutyl) carbonate] | 1.46 | 12 | 98 | 40.503 | 0.26 | 530 | 1240 | 33.1 | 97 | 900 | > 50000 | – | – | – | – | –
CC(C)OC(=O)Nc1ncnn2c([C@]3(C#N)O[C@H](COC(=O)OC(C)C)[C@@H](OC(=O)OC(C)C)[C@H]3O)ccc12 [Compound 62, isopropyl (7-((2R,3R,4S,5R)-2-cyano-3-hydroxy-4-((isopropoxycarbonyl)oxy)-5-(((isopropoxycarbonyl)oxy)methyl)tetrahydrofuran-2-yl)pyrrolo[2,1-f][1,2,4]triazin-4-yl)carbamate] | 4.19 | 12.12 | 61 | 488.7 | 0.1 | > 50000 | ≥ 5000 | 31.1 | 10 | ≥ 5000 | > 50000 | – | – | – | – | –
N#C[C@@]1(c2ccc3c(N)ncnn23)O[C@H](COC(=O)OCCl)[C@@H](O)[C@H]1O [Compound 101, ((2R,3S,4R,5R)-5-(4-aminopyrrolo[2,1-f][1,2,4]triazin-7-yl)-5-cyano-3,4-dihydroxytetrahydrofuran-2-yl)methyl (chloromethyl) carbonate] | – | – | – | – | – | – | – | – | – | – | – | 0.9 | 3210 | 1960 | > 50000 | EC50 ([5]; HEp-2, read-out: EC50 RSVFluc-Hep2 384 V2): 1840 nM
CCOP(=O)(O)O[C@H]1[C@@H](O)[C@](C#N)(c2ccc3c(N)ncnn23)O[C@@H]1COC(=O)OC(C)C [Compound 144, [(2R,3S,4R,5R)-5-(4-aminopyrrolo[2,1-f][1,2,4]triazin-7-yl)-5-cyano-3-[ethoxy(hydroxy)phosphoryl]oxy-4-hydroxy-tetrahydrofuran-2-yl]methyl isopropyl carbonate] | – | – | – | – | – | – | – | – | – | – | – | 0.4 | > 50000 | 3060 | > 50000 | –
CN1[C@@H]2CC[C@H]1C[C@@H](OC(=O)OC[C@H]1O[C@@](C#N)(c3ccc4c(N)ncnn34)[C@H](O)[C@@H]1O)C2 [Compound 156, ((2R,3S,4R,5R)-5-(4-aminopyrrolo[2,1-f][1,2,4]triazin-7-yl)-5-cyano-3,4-dihydroxytetrahydrofuran-2-yl)methyl ((1R,3r,5S)-8-methyl-8-azabicyclo[3.2.1]octan-3-yl) carbonate] | 0.12 | 0.13 | – | 248.79 | – | – | – | – | – | – | – | 0.3 | 31400 | 49800 | > 50000 | GIS9-HUMAN-NoPMSF T1/2 ([11]; human, s9, 2 µM): 789
CC(C)C(=O)OC[C@H]1O[C@@](C#N)(c2ccc3c(N)ncnn23)[C@H](O)[C@@H]1O [Ester Reference Compound] | – | – | – | – | – | – | – | – | – | – | – | – | – | – | – | Stability at pH2, 0 hr ([2]; 0 h, 50 µg/mL, pH 2): 98.5 % AN; Stability at pH2, 3 hr ([2]; 3 h, 50 µg/mL, pH 2): 97.8 % AN; Stability at pH2, 6 hr ([2]; 6 h, 50 µg/mL, pH 2): 97.3 % AN; Stability at pH2, 9 hr ([2]; 9 h, 50 µg/mL, pH 2): 96.7 % AN; Stability at pH2, 12 hr ([2]; 12 h, 50 µg/mL, pH 2): 96.1 % AN; Stability at pH2, 24 hr ([2]; 24 h, 50 µg/mL, pH 2): 94.4 % AN; Cmax [13]: 2100 nM; Reference Compound A AUCinf. [13]: 7.57 µM·h; Reference Compound A F % ([13]; 1 mg/kg): 63.6%
